Data on 32 compounds can be found in US20130324556A1, “Protease Activated Receptor 2 (PAR2) Antagonists” (priority 2011, published 2013).

The term IC50 denotes the point on the concentration scale where inhibition reaches its midpoint.

Structures can show the parent of a compound that is named as a salt.

The first test addresses T1, human PAR2 receptor (Homo sapiens, UniProt P55085).
T1 construct: expressed in transfected cells; host or cells: 1321N1 cells
T1 sequence (P55085 26-397): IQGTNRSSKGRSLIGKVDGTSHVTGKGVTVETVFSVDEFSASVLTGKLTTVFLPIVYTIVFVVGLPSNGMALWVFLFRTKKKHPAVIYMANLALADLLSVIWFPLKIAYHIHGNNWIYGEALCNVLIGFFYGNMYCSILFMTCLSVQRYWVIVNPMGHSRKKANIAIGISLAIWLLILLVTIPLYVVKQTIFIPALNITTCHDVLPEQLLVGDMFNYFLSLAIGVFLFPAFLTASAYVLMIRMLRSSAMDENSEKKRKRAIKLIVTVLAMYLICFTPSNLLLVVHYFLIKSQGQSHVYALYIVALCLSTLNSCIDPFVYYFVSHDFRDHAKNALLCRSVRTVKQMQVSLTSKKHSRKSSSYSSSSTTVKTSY
The experiment in a line: PAR2 antagonist activity, calcium flux FLIPR assay (trypsin challenge). In kind it is cell-based.
Settings: not given
The method, then: The PAR2 receptor couples through the Gq signaling pathway and results in activation of calcium mobilization. The functional activity of test compounds was routinely tested by measuring the ability of compounds to antagonize PAR2 (trypsin challenge) activity in a dose dependent manner, in 1321N1 cells transfected with the human PAR2 receptor, using a calcium flux Fluorescent Imaging Plate Reader FLIPR assay.
Briefly, test compounds were dissolved in DMSO to a concentration of 20 mM and stored in matrix screenmate racks. […] The compounds were then transferred to 384-well assay plates ready for use. […] The assay buffer used was HBSS buffer supplemented with 20 mM HEPES and 0.1% BSA (protease free), pH7.4. The loading/wash buffers were the same as the assay buffer.
Sub-cultivations were performed every 2-3 d. […] After washing, the cells were loaded with Fluo-4 AM dye (Molecular probes) at 2 μM containing 0.48 μg/mL pluronic acid for 60 min at 37° C. under 5% CO2.
A combined agonist/antagonist protocol was used to measure changes in intracellular calcium concentration. Compound (antagonist) was added to the cell plate using a Fluorometric Imaging Plate Reader (FLIPR) (Molecular Devices, Sunnyvale, Calif., USA). Basal fluorescence was recorded every second for 10 seconds prior to compound addition (10 μl) and fluorescence recorded every second for 1 min then every 6 seconds for a further 1 min. Trypsin (EC50 concentration) was then added using the FLIPR and fluorescence recorded as described above. Curve-fitting and parameter estimation were carried out using GraphPad Prism 4.0 (GraphPad Software Inc., San Diego, Calif.).
As for `O=C(NCc1ccc2nc[nH]c2c1)N1CCC(Nc2ccc(F)cc2)CC1` [Example 58, N-(1H-1,3-Benzodiazol-6-ylmethyl)-4-[(4-fluorophenyl)amino]piperidine-1-carboxamide], the concentration for half-maximal inhibition (IC50) lay in the range of 20 to 50 µM.

The same test, now with this note: 1321N1 cells transfected with the human PAR2 receptor; trypsin (EC50 concentration) challenge; calcium flux FLIPR; read-out: PAR2 IC50.
As for `O=C(NCc1ccc2c(c1)CNC2)N1CCC(Oc2ccc(F)cc2)CC1` [Example 66, N-(2,3-Dihydro-1H-isoindol-5-ylmethyl)-4-(4-fluorophenoxy) piperidine-1-carboxamide hydrochloride], the concentration for half-maximal inhibition (IC50) lay in the range of 20 to 50 µM.
`NCc1ccc(CNC(=O)N2CCC(Oc3ccccc3Cl)CC2)cc1` [Example 13, N-{[4-(Aminomethyl)phen-yl]methyl}-4-(2-chlorophenoxy)piperidine-1-carboxamide hydrochloride]: the IC50 was 20 to 50 µM.
For the compound `NCc1ccc(CNC(=O)N2CCC(Cc3cccc(F)c3)CC2)cc1` [Example 4, 2,2,2-Trifluoroacetic acid; N-{[4-(aminomethyl)phenyl]methyl}-4-[(3-fluorophenyl)methyl] piperidine-1-carboxamide], the IC50 is below 5 µM.
On to `NCc1ccc(CNC(=O)N2CCC(C(=O)c3ccc(F)cc3)CC2)cc1` [Example 18, 2,2,2-Trifluoroacetic acid;- N-{[4-(aminomethyl)phenyl]methyl}-4-[(4-fluorophenyl)carbonyl] piperidine-1-carboxamide], for which the half-maximal inhibitory concentration (IC50) was in the range of 5 to 20 µM.
With `CN(Cc1ccc(C(=N)N)cc1)C(=O)N1CCC(Cc2ccccc2)CC1` [Example 43, 4-Benzyl-N-[(4-carbamimidoylphenyl)methyl]-N-methylpiperidine-1-carboxamide hydrochloride], the IC50 was in the range of 5 to 20 µM.
`NCc1ccc(CNC(=O)N2CCC(Oc3ccc(F)cc3)CC2)cc1` [Example 12, N-{[4-(Aminomethyl)phen-yl]methyl}-4-(4-fluorophenoxy)piperidine-1-carboxamide]: the IC50 is 5 to 20 µM.
Turning to `NCc1ccc(CNC(=O)N2CCC(c3ccccc3)C2)cc1` (centres unmarked) [Example 29, 2,2,2-Trifluoroacetic acid; N-{[4-(aminomethyl)phenyl]methyl}-3-phenylpyrrolidine-1-carboxamide], the IC50 was in the range of 50 to 100 µM.
Still for that read-out and setting: to `O=C(NCc1ccc2nc[nH]c2c1)N1CCC(Cc2ccccc2)CC1` [Example 52, N-(1H-1,3-Benzodiazol-6-ylmethyl)-4-benzylpiperidine-1-carboxamide] belongs 5 to 20 µM.
For the compound `O=C(NCc1ccc(C2=NCCN2)cc1)N1CCC(Cc2ccccc2)CC1` [Example 39, 4-Benzyl-N-{[4-(4,5-dihydro-1H-imidazol-2-yl)phenyl]methyl}piperidine-1-carboxamide], the half-maximal inhibitory concentration (IC50) was in the range of 20 to 50 µM.
Same read-out and setting: with `N=C(N)c1ccc(CNC(=O)N2CCC(Cc3ccccc3)CC2)cn1` [Example 50, 4-Benzyl-N-[(6-carbam-imidoylpyridin-3-yl)methyl]piperidine-1-carboxamide hydrochloride] the figure was below 5 µM; with `Cn1cnc2ccc(CNC(=O)N3CCC(Cc4ccccc4)CC3)cc21` [Example 54, 4-Benzyl-N-[(1-methyl-1H-1,3-benzodiazol-6-yl)methyl]piperidine-1-carboxamide], 50 to 100 µM.
Turning to `O=C(NCc1ccc2nc[nH]c2c1)N1CCC(Oc2ccc(F)cc2)CC1` [Example 55, N-(1H-1,3-Benzodiazol-6-ylmethyl)-4-(4-fluorophenoxy)piperidine-1-carboxamide], the half-maximal inhibitory concentration (IC50) lay in the range of 20 to 50 µM.
With `N=C(N)c1ccc(CNC(=O)N2CCC(Cc3ccccc3)CC2)cc1F` [Example 45, 4-Benzyl-N-[(4-carbamimidoyl-3-fluorophenyl)meth-yl]piperidine-1-carboxamide hydrochloride], the half-inhibitory concentration (IC50) was below 5 µM.
The same measure, in the same setting: with `N=C(N)c1ccc(CNC(=O)N2CCC(Cc3ccncc3)CC2)cc1` [Example 40, N-[(4-Carbamimidoylphen-yl)methyl]-4-(pyridin-4-ylmethyl)piperi-dine-1-carboxamide] the figure was below 5 µM.
Still for that read-out and setting: with `N=C(N)c1ccc(CNC(=O)C2CCN(Cc3ccccc3)CC2)cc1` [Example 44, 1-Benzyl-N-[(4-carbamimidoylphenyl)meth-yl]piperidine-4-carboxamide dihydrochloride] the figure was 5 to 20 µM; with `NCc1ccc(CNC(=O)N2CCC(Cc3ccccc3)CC2)cc1` [Example 1, (4-{[(4-Benzylpiperidin-1-yl)carbonylamino]methyl}phenyl)methanaminium chloride], 5 to 20 µM; with `COc1cccc(CC2CCN(C(=O)NCc3ccc(CN)cc3)CC2)c1` [Example 2, 2,2,2-Trifluoroacetic acid; N-{[4-(aminomethyl)phenyl]methyl}-4-[(3-methoxyphenyl)methyl] piperidine-1-carboxamide], 20 to 50 µM.
Consider `NCc1ccc(CNC(=O)N2CCC(C(O)c3ccc(F)cc3)CC2)cc1` (centres unmarked) [Example 19, N-{[4-(Aminomethyl)phen-yl]methyl}-4-[(4-fluorophenyl)(hydroxy)meth-yl] piperidine-1-carboxamide], for which the IC50 lay within 5 to 20 µM.
Turning to `NCc1ccc(CNC(=O)N2CCC(Oc3ccccc3)CC2)cc1` [Example 11, N-{[4-(Aminomethyl)phen-yl]methyl}-4-phenoxypiperidine-1-carboxamide], the IC50 lay within 20 to 50 µM.
As for `O=C(NCc1ccc2c(c1)CNC2)N1CCC(Cc2ccncc2)CC1` [Example 65, N-(2,3-Dihydro-1H-isoindol-5-ylmethyl)-4-(pyridin-4-ylmethyl)piperidine-1-carboxamide dihydrochloride], the 50% inhibitory concentration (IC50) lay in the range of 50 to 100 µM.
For `CN(C)C(=N)c1ccc(CNC(=O)N2CCC(Cc3ccccc3)CC2)cc1` [Example 38, 2,2,2-Trifluoroacetic acid; 4-benzyl-N-{[4-(N,N-dimethylcar-bamimidoyl)phen-yl]methyl} piperidine-1-carboxamide], the IC50 was in the range of 5 to 20 µM.
Same read-out and setting: to `NCc1ccc(CNC(=O)N2CCC(Cc3ccc(Cl)cc3)CC2)cc1` [Example 6, 2,2,2-Trifluoroacetic acid; N-{[4-(aminomethyl)phenyl]methyl}-4-[(4-chlorophenyl)methyl] piperidine-1-carboxamide] belongs below 5 µM; to `NCc1ccc(CNC(=O)N2CCC(Cc3ccccc3)C2)cc1` (centres unmarked) [Example 28, N-{[4-(Aminomethyl)phen-yl]methyl}-3-benzylpyrrolidine-1-carboxamide], 20 to 50 µM.
As to `NCc1cccc(CNC(=O)N2CCC(Cc3ccccc3)CC2)c1` [Example 67, N-{[3-(Aminometh-yl)phen-yl]methyl}-4-benzylpiperidine-1-carboxamide], the half-maximal inhibitory concentration (IC50) is 50 to 100 µM.
Consider `O=C(NCc1ccc2nc[nH]c2c1)N1CCC(c2ccccc2)C1` (centres unmarked) [Example 59, 2,2,2-Trifluoroacetic acid; N-(1H-1,3-benzodiazol-5-ylmethyl)-3-phenylpyrrolidine-1-carboxamide], for which the half-maximal inhibitory concentration (IC50) was in the range of 5 to 20 µM.
Turning to `N=C(N)c1ccc(CNC(=O)N2CCC(Cc3ccccc3)CC2)cc1` [Example 36, 4-Benzyl-N-[(4-carbamimidoylphenyl)methyl]piperidine-1-carboxamide], the 50% inhibitory concentration (IC50) was below 5 µM.
Still for that read-out and setting: with `NCc1ccc(CNC(=O)N2CCC(Cc3ccccn3)CC2)cc1` [Example 8, N-{[4-(Aminomethyl)phen-yl]methyl}-4-(pyridin-2-ylmethyl)piperidine-1-carboxamide] the figure was 5 to 20 µM; with `NCc1ccc(CNC(=O)N2CCC(Oc3cccc(Cl)c3)CC2)cc1` [Example 14, N-{[4-(Aminomethyl)phen-yl]methyl}-4-(3-chlorophenoxy)piperidine-1-carboxamide hydrochloride], 20 to 50 µM.
Turning to `Nc1nc2ccc(CNC(=O)N3CCC(Cc4ccccc4)CC3)cc2[nH]1` [Example 62, N-[(2-Amino-1H-1,3-benzodiazol-6-yl)methyl]-4-benzylpiperidine-1-carboxamide], the IC50 lay in the range of 5 to 20 µM.
Take `NCc1ccc(CNC(=O)N2CCC(n3c(=O)[nH]c4ccccc43)CC2)cc1` [Example 33, N-{[4-(Aminomethyl)phen-yl]methyl}-4-(2-oxo-2,3-dihydro-1H-1,3-benzodiazol-1-yl)piperidine-1-carboxa-mide hydrochloride]: the half-inhibitory concentration (IC50) lay within 20 to 50 µM.
With `N=C(N)Nc1ccc(CNC(=O)N2CCC(Cc3ccccc3)CC2)cc1` [Example 63, 2,2,2-Trifluoroacetic acid; 4-benzyl-N-[(4-carbamimidamidophenyl)methyl]piperidine-1-carboxamide], the IC50 lay in the range of 5 to 20 µM.
